In PubChem BioAssay (NCI):
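The compound was tested at five concentrations on cells cultured in 96-well plates, with a 48-hour exposure period. Here, GI50 denotes the concentration required for 50% inhibition of growth. TGI denotes the concentration required for complete inhibition of growth.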

Legend:
Experiment in all cases: inhibition of tumour cell growth, NCI panel, 48 h
CCRF-CEM leukemia = system: CCRF-CEM leukemia
IGROV1 ovarian = system: IGROV1 ovarian
OVCAR-3 ovarian = system: OVCAR-3 ovarian
HT29 colon = system: HT29 colon
HL-60(TB) leukemia = system: HL-60(TB) leukemia
SF-539 CNS = system: SF-539 CNS
SK-MEL-28 melanoma = system: SK-MEL-28 melanoma
PC-3 prostate = system: PC-3 prostate
SK-MEL-5 melanoma = system: SK-MEL-5 melanoma
HCT-116 colon = system: HCT-116 colon
NCI-H226 lung = system: NCI-H226 lung
COLO 205 colon = system: COLO 205 colon
NCI-H460 lung = system: NCI-H460 lung
DU-145 prostate = system: DU-145 prostate
OVCAR-8 ovarian = system: OVCAR-8 ovarian
NCI-H23 lung = system: NCI-H23 lung
SK-OV-3 ovarian = system: SK-OV-3 ovarian
HOP-92 NSCLC = system: HOP-92 NSCLC
MALME-3M melanoma = system: MALME-3M melanoma
A498 renal = system: A498 renal
HCT-15 colon = system: HCT-15 colon
U251 CNS = system: U251 CNS
NCI/ADR-RES ovarian = system: NCI/ADR-RES ovarian
SR leukemia = system: SR leukemia
SW-620 colon = system: SW-620 colon
EKVX NSCLC = system: EKVX NSCLC
SN12C renal = system: SN12C renal
HCC-2998 colon = system: HCC-2998 colon
SK-MEL-2 melanoma = system: SK-MEL-2 melanoma
K-562 leukemia = system: K-562 leukemia
RPMI-8226 leukemia = system: RPMI-8226 leukemia
UO-31 renal = system: UO-31 renal
SF-268 CNS = system: SF-268 CNS
CAKI-1 renal = system: CAKI-1 renal
RXF 393 renal = system: RXF 393 renal
MDA-MB-231 breast = system: MDA-MB-231 breast
MCF7 breast = system: MCF7 breast
UACC-62 melanoma = system: UACC-62 melanoma
ACHN renal = system: ACHN renal
A549 NSCLC = system: A549 NSCLC
BT-549 breast = system: BT-549 breast
OVCAR-4 ovarian = system: OVCAR-4 ovarian
LOX IMVI melanoma = system: LOX IMVI melanoma
UACC-257 melanoma = system: UACC-257 melanoma
SNB-19 CNS = system: SNB-19 CNS
HS 578T breast = system: HS 578T breast
M14 melanoma = system: M14 melanoma
TK-10 renal = system: TK-10 renal
MOLT-4 leukemia = system: MOLT-4 leukemia
MDA-MB-435 = system: MDA-MB-435
786-0 renal = system: 786-0 renal
SNB-75 CNS = system: SNB-75 CNS
NCI-H522 lung = system: NCI-H522 lung
OVCAR-5 ovarian = system: OVCAR-5 ovarian
T-47D breast = system: T-47D breast
KM12 colon = system: KM12 colon
SF-295 CNS = system: SF-295 CNS
HOP-62 NSCLC = system: HOP-62 NSCLC
MDA-N = system: MDA-N

CN(C)C(=O)OCc1nc2c(N3CCOCC3)nc(-c3ccccc3)nc2n1C
GI50 (CCRF-CEM leukemia): 273 nM | TGI (CCRF-CEM leukemia): 1550 nM | GI50 (IGROV1 ovarian): 618 nM | TGI (IGROV1 ovarian): 1920 nM | GI50 (OVCAR-3 ovarian): 203 nM | TGI (OVCAR-3 ovarian): 433 nM | GI50 (HT29 colon): 476 nM | TGI (HT29 colon): 1.78 µM | GI50 (HL-60(TB) leukemia): 375 nM | TGI (HL-60(TB) leukemia): 1960 nM | GI50 (SF-539 CNS): 1400 nM | TGI (SF-539 CNS): 2720 nM | GI50 (SK-MEL-28 melanoma): 1550 nM | TGI (SK-MEL-28 melanoma): 2.9 µM | GI50 (PC-3 prostate): 507 nM | TGI (PC-3 prostate): 1310 nM | GI50 (SK-MEL-5 melanoma): 1420 nM | TGI (SK-MEL-5 melanoma): 2.73 µM | GI50 (HCT-116 colon): 204 nM | TGI (HCT-116 colon): 616 nM | GI50 (NCI-H226 lung): 1690 nM | TGI (NCI-H226 lung): 3.65 µM | GI50 (COLO 205 colon): 1320 nM | TGI (COLO 205 colon): 2.97 µM | GI50 (NCI-H460 lung): 1660 nM | TGI (NCI-H460 lung): 3.52 µM | GI50 (DU-145 prostate): 1050 nM | TGI (DU-145 prostate): 2.28 µM | GI50 (OVCAR-8 ovarian): 1260 nM | TGI (OVCAR-8 ovarian): 3.24 µM | GI50 (NCI-H23 lung): 1620 nM | TGI (NCI-H23 lung): 3.35 µM | GI50 (SK-OV-3 ovarian): 4.06 µM | TGI (SK-OV-3 ovarian): 13.5 µM | GI50 (HOP-92 NSCLC): 399 nM | TGI (HOP-92 NSCLC): 1240 nM | GI50 (MALME-3M melanoma): 1570 nM | TGI (MALME-3M melanoma): 2.96 µM | GI50 (A498 renal): 1340 nM | TGI (A498 renal): 2.68 µM | GI50 (HCT-15 colon): 220 nM | TGI (HCT-15 colon): 561 nM | GI50 (U251 CNS): 1470 nM | TGI (U251 CNS): 2980 nM | GI50 (NCI/ADR-RES ovarian): 1590 nM | TGI (NCI/ADR-RES ovarian): 6.53 µM | GI50 (SR leukemia): 252 nM | TGI (SR leukemia): 2980 nM | GI50 (SW-620 colon): 305 nM | TGI (SW-620 colon): 899 nM | GI50 (EKVX NSCLC): 1440 nM | TGI (EKVX NSCLC): 2950 nM | GI50 (SN12C renal): 912 nM | TGI (SN12C renal): 2.31 µM | GI50 (HCC-2998 colon): 1560 nM | TGI (HCC-2998 colon): 3.1 µM | GI50 (SK-MEL-2 melanoma): 1770 nM | TGI (SK-MEL-2 melanoma): 3.43 µM | GI50 (K-562 leukemia): 332 nM | TGI (K-562 leukemia): 3.17 µM | GI50 (RPMI-8226 leukemia): 189 nM | TGI (RPMI-8226 leukemia): 675 nM | GI50 (UO-31 renal): 373 nM | TGI (UO-31 renal): 1.55 µM | GI50 (SF-268 CNS): 1390 nM | TGI (SF-268 CNS): 2770 nM | GI50 (CAKI-1 renal): 450 nM | TGI (CAKI-1 renal): 1.7 µM | GI50 (RXF 393 renal): 566 nM | TGI (RXF 393 renal): 1680 nM | GI50 (MDA-MB-231 breast): 1250 nM | TGI (MDA-MB-231 breast): 2620 nM | GI50 (MCF7 breast): 427 nM | TGI (MCF7 breast): 2090 nM | GI50 (UACC-62 melanoma): 1390 nM | TGI (UACC-62 melanoma): 2.73 µM | GI50 (ACHN renal): 415 nM | TGI (ACHN renal): 1430 nM | GI50 (A549 NSCLC): 1560 nM | TGI (A549 NSCLC): 3.75 µM | GI50 (BT-549 breast): 1040 nM | TGI (BT-549 breast): 2.32 µM | GI50 (OVCAR-4 ovarian): 790 nM | TGI (OVCAR-4 ovarian): 2160 nM | GI50 (LOX IMVI melanoma): 183 nM | TGI (LOX IMVI melanoma): 402 nM | GI50 (UACC-257 melanoma): 1360 nM | TGI (UACC-257 melanoma): 2930 nM | GI50 (SNB-19 CNS): 1530 nM | TGI (SNB-19 CNS): 2930 nM | GI50 (HS 578T breast): 1420 nM | TGI (HS 578T breast): 4.33 µM | GI50 (M14 melanoma): 609 nM | TGI (M14 melanoma): 1.9 µM | GI50 (TK-10 renal): 1460 nM | TGI (TK-10 renal): 2.81 µM | GI50 (MOLT-4 leukemia): 497 nM | TGI (MOLT-4 leukemia): 3.14 µM | GI50 (MDA-MB-435): 891 nM | TGI (MDA-MB-435): 2270 nM | GI50 (786-0 renal): 892 nM | TGI (786-0 renal): 2310 nM | GI50 (SNB-75 CNS): 1100 nM | TGI (SNB-75 CNS): 2370 nM | GI50 (NCI-H522 lung): 454 nM | TGI (NCI-H522 lung): 2020 nM | GI50 (OVCAR-5 ovarian): 1600 nM | TGI (OVCAR-5 ovarian): 3.26 µM | GI50 (T-47D breast): 1850 nM | TGI (T-47D breast): 4.62 µM | GI50 (KM12 colon): 1540 nM | TGI (KM12 colon): 3.32 µM | GI50 (SF-295 CNS): 1650 nM | TGI (SF-295 CNS): 3080 nM | GI50 (HOP-62 NSCLC): 1720 nM | TGI (HOP-62 NSCLC): 4.46 µM

O=C(c1cccc2ccccc12)C1S(=O)(=O)OCCOS1(=O)=O
TGI (CCRF-CEM leukemia): > 100000 nM | TGI (OVCAR-3 ovarian): > 100000 nM | TGI (HT29 colon): > 100 µM | TGI (HL-60(TB) leukemia): > 100000 nM | TGI (SK-MEL-28 melanoma): > 100 µM | TGI (PC-3 prostate): > 100000 nM | TGI (SK-MEL-5 melanoma): > 100 µM | TGI (HCT-116 colon): > 100000 nM | TGI (COLO 205 colon): > 100 µM | TGI (NCI-H460 lung): > 100 µM | TGI (DU-145 prostate): > 100 µM | TGI (OVCAR-8 ovarian): > 100 µM | TGI (NCI-H23 lung): > 100 µM | TGI (MALME-3M melanoma): > 100 µM | TGI (HCT-15 colon): > 100000 nM | TGI (U251 CNS): > 100000 nM | TGI (NCI/ADR-RES ovarian): > 100 µM | TGI (SR leukemia): > 100000 nM | TGI (MDA-N): > 100000 nM | TGI (EKVX NSCLC): > 100000 nM | TGI (SN12C renal): > 100 µM | TGI (HCC-2998 colon): > 100 µM | TGI (SK-MEL-2 melanoma): > 100 µM | TGI (K-562 leukemia): > 100 µM | TGI (RPMI-8226 leukemia): > 100000 nM | TGI (UO-31 renal): > 100 µM | TGI (CAKI-1 renal): > 100 µM | TGI (MDA-MB-231 breast): > 100000 nM | TGI (MCF7 breast): > 100000 nM | TGI (ACHN renal): > 100000 nM | TGI (A549 NSCLC): > 100 µM | TGI (BT-549 breast): > 100 µM | TGI (OVCAR-4 ovarian): > 100000 nM | TGI (SNB-19 CNS): > 100000 nM | TGI (M14 melanoma): > 100 µM | TGI (TK-10 renal): > 100 µM | TGI (MOLT-4 leukemia): > 100 µM | TGI (786-0 renal): > 100000 nM | TGI (OVCAR-5 ovarian): > 100 µM | TGI (KM12 colon): > 100 µM | TGI (SF-295 CNS): 41.2 nM | TGI (HOP-62 NSCLC): > 100 µM

c1ccc2cc3c(cc2c1)Nc1c2ccccc2nc2cccc-3c12
TGI (IGROV1 ovarian): 2750 nM | TGI (HT29 colon): 3.2 µM | TGI (SK-MEL-28 melanoma): 3.12 µM | TGI (PC-3 prostate): 2870 nM | TGI (SK-MEL-5 melanoma): 3.11 µM | TGI (NCI-H226 lung): 5.03 µM | TGI (COLO 205 colon): 3.02 µM | TGI (NCI-H460 lung): 3.26 µM | TGI (DU-145 prostate): 3.1 µM | TGI (NCI-H23 lung): 2.61 µM | TGI (SK-OV-3 ovarian): 3.01 µM | TGI (HOP-92 NSCLC): 2860 nM | TGI (MALME-3M melanoma): 3.07 µM | TGI (A498 renal): 6.8 µM | TGI (NCI/ADR-RES ovarian): 4.69 µM | TGI (SW-620 colon): 2910 nM | TGI (MDA-N): 2830 nM | TGI (SN12C renal): 3.08 µM | TGI (HCC-2998 colon): 3.1 µM | TGI (SK-MEL-2 melanoma): 2.84 µM | TGI (K-562 leukemia): > 100 µM | TGI (UO-31 renal): 3 µM | TGI (CAKI-1 renal): 3.05 µM | TGI (MDA-MB-231 breast): 2450 nM | TGI (UACC-62 melanoma): 3.57 µM | TGI (ACHN renal): 2880 nM | TGI (A549 NSCLC): 3.3 µM | TGI (BT-549 breast): 38.4 µM | TGI (LOX IMVI melanoma): 2930 nM | TGI (UACC-257 melanoma): 2920 nM | TGI (M14 melanoma): 3.76 µM | TGI (TK-10 renal): 3.28 µM | TGI (MDA-MB-435): 3430 nM | TGI (OVCAR-5 ovarian): 3.22 µM | TGI (SF-295 CNS): 2960 nM
